Where “and” joins values, the source holds several entries; their conditions need not be identical. Equal values may be shown once. Calls of active or inactive are those of the source.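 The calls were made as follows: active = viability loss whose fitted half-maximal potency is at most twice the top valid dose for that sample; inconclusive = flat curve with 30 to 70% viability loss, or poor fit; inactive = the rest.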
Legend:
[1] = system: MALME3 melanoma viability, CellTiter-Glo ATP luminescence, 24 h; experiment: MALME3 melanoma cell viability reduction, dose response, orthogonal assay for MITF inhibitor project, CellTiter-Glo luminescence, dry powder, set 5 (AID 651584)
[2] = as above; conditions: MALME3 melanoma viability, CellTiter-Glo ATP luminescence, 24 h; at 35 µM (top of the series)

For `O=C1C=C(Nc2ccccc2)C(=O)c2ccccc21`, which AC50 [1] is on record?
Its AC50 is 5.86 µM and 28.4 µM.

Which activity change, negative = viability loss [2] does the source give for `NC1=C(NS(=O)(=O)c2ccc(Br)s2)C(=O)c2ccccc2C1=O` here?
The activity change, negative = viability loss was -3.99% (inactive).
